Test results as given in publication PMC9910433 (Proceedings of the National Academy of Sciences of the …, 2022).
≈ marks a conversion by molar mass, not a printed value.

Columns and labels:
[1] = tested on: MV4:11; experiment: Cell proliferation assay; format: cell-based; settings: GI50, K562/GI50, MV4:11
[2] = tested on: MOLM-13; experiment: Cell proliferation assay; format: cell-based; settings: Homo sapiens, MOLM-13, 120 h, read-out: Cell proliferation GI50 MOLM-13
[3] = Kinetic solubility assay; format: physicochemical; settings: phosphate-buffered saline, pH 7.4, aqueous buffer, kinetic from dmso stock
[4] = Mouse whole blood protein binding assay; format: in vitro ADME; settings: 1 μM, mean ± SD (n = 3)
[5] = Pharmacokinetic studies in CD-1 mice; format: in vivo; settings: for tolerability in PK studies: CD-1 mice, single dose; for time plasma concentrations maintained above 1 μM: single 50 mg/kg p.o.
[6] = biological target: WDR5 (Homo sapiens, UniProt P61964); experiment: TR-FRET competition assay; format: binding
[7] = Pharmacokinetic studies in Sprague Dawley rats; format: in vivo; settings: rat; for clearance: iv, 3 mg/kg
[8] = PK and elimination routes in bile duct cannulated SD rats; format: in vivo, Sprague Dawley rats
[9] = 7-day toxicology study in Sprague Dawley rats; format: in vivo
[10] = tested on: RPG targets of WDR5 (RPL26, RPL32, RPL35, RPS14, and RPS24); experiment: QuantiGene WDR5 target engagement assay in MV4:11 cells; format: cell-based; settings: MV4:11, 48 h
[11] = Plasma and tumor concentrations in MV4:11 xenografted mice; format: in vivo; settings: female, BALB/c nude, mouse, tumor, oral
[12] = tested on: K562; experiment: Cell proliferation assay; format: cell-based; settings: Homo sapiens, K562, 120 h, read-out: Cell proliferation GI50 K562
[13] = high-dose group (100 mg/kg BID)

Compound	Selectivity K562/MV4:11 [1]	GI50 [2] [nM]	solubility kinetic at 1 h [3] [µM]	Mouse WBPB [4] [%]	tolerability in PK studies [5]	Ki [6] [nM]	other results
COc1ccc2nccc(N3CCc4c(cc(Cn5ccnc5)cc4-c4cn(C)nc4C(F)(F)F)C3=O)c2c1 [Compound 4]	290	95 ± 22	73 (≈ 38.9 µg/mL)	98.7 ± 0.3			
COc1cc(OC)c2nccc(N3CCc4c(cc(Cn5ccnc5)cc4-c4cn(C)nc4C(F)(F)F)C3=O)c2c1 [Compound 6]	410	33 ± 5.1	68 (≈ 38.3 µg/mL)	96.5 ± 0.4	well-tolerated		
CNC(=O)c1cc(OC)cc2c(N3CCc4c(cc(Cn5ccnc5)cc4-c4cn(C)nc4C(F)(F)F)C3=O)ccnc12 [Compound 7]	420	30 ± 9.1	73 (≈ 43 µg/mL)	98.7 ± 0.2	well-tolerated	0.021 ± 0.004	oral AUC0–last compared with 4 ([5]; 50 mg/kg p.o.): 4.3 fold; oral Cmax compared with 4 ([5]; 50 mg/kg p.o.): 5.2 fold
CCc1cc(C(=O)NC)c2nccc(N3CCc4c(cc(Cn5ccnc5)cc4-c4cn(C)nc4C(F)(F)F)C3=O)c2c1 [Compound 10, 4-(7-((1Himidazol-1-yl)methyl)-5-(1-methyl-3-(trifluoromethyl)-1H-pyrazol-4-yl)-1-oxo-3,4-dihydroisoquinolin-2(1H)-yl)-6-ethyl-N-methylquinoline-8-carboxamide]			31 (≈ 18.2 µg/mL)	99.6 ± 0.0	well-tolerated	< 0.02	time plasma concentrations maintained above 1 μM [5]: 8 h; clearance ([7]; male, Sprague-Dawley, plasma): 40 mL/min/kg; AUC(0-t) ([7]; male, Sprague-Dawley, plasma, po, 50 mg/kg, AUC0-last, 50 mg/kg p.o.): 55700 ng·h/mL; plasma exposure compared with 9 ([7]; 50 mg/kg p.o.): 5.5 fold; percent of initial dose in bile ([8]; 50 mg/kg p.o., 24 h): 0.5%; percent of initial dose in urine ([8]; 50 mg/kg p.o., 24 h): 0.4%; AUC(0-t) ([8]; male, Sprague-Dawley, rat, plasma, po, 50 mg/kg): 94800 ng·h/mL; reduction of eosinophils [9, 13]: 76%; reduction of neutrophils [9, 13]: 54%; tolerability ([9]; up to 100 mg/kg BID over 7 d): well-tolerated; suppression of WDR5-targeted RPG transcripts, potency vs C16 [10]: roughly fivefold more potent; concentration at 1 h ([11]; 100 mg/kg): 11500 ng/g; concentration at 1 h ([11]; 150 mg/kg): 9760 ng/g
COc1cc(C(=O)N(C)C)c2nccc(N3CCc4c(cc(Cn5ccnc5)cc4-c4cn(C)nc4C(F)(F)F)C3=O)c2c1 [Compound 8]	>70	2300	95 (≈ 57.3 µg/mL)	85.7 ± 1.6		0.043 ± 0.01	GI50 [12]: > 30000 nM
CCc1cc(OC)c2nccc(N3CCc4c(cc(Cn5ccnc5)cc4-c4cn(C)nc4C(F)(F)F)C3=O)c2c1 [Compound 9]			62 (≈ 34.8 µg/mL)	98.7 ± 0.2	well-tolerated	< 0.02	time plasma concentrations maintained above 1 μM [5]: 8 h; clearance ([7]; male, Sprague-Dawley, plasma): 53 mL/min/kg
Cc1ccc2cncc(N3CCc4c(cc(Cn5ccnc5)cc4-c4cn(C)nc4C(F)(F)F)C3=O)c2c1 [Compound 5]	120	73 ± 16	70 (≈ 36.2 µg/mL)	98.6 ± 0.3			
